Values quoted from earlier work in patent US20180235913A1, “AN ORAL PHARMACEUTICAL FORMULATION COMPRISING SUSTAINED-RELEASE GRANULES CONTAINING TAMSULOSIN HYDROCHLORIDE” (HANMI PHARM. CO., LTD., priority 2015, published 2018).
Counter-ions that a name gives are not always drawn.

Details: white crystalline powder

## CCOc1ccccc1OCCN[C@H](C)Cc1ccc(OC)c(S(N)(=O)=O)c1 [Tamsulosin hydrochloride]
  Water solubility: slight water solubility
